Read-outs that look alike come from different tables or passages of the source.

In assay [1] the test system is MCF7-ADR.
A further assay has as its system MCF-7. As to the kind of experiment: cells. Format: cell-based. The settings on record: Homo sapiens, MCF7, read-out: IC50 MCF-7.
Assay [2] concerns MCF7-ADR. As to the kind of experiment: cells. The settings on record: Homo sapiens, NCI/ADR-RES, read-out: IC50 MCF7-ADR.

Take `COc1cc2c(c(OC)c1OC)-c1ccc(OC)c(=O)cc1[C@@H](NC(C)=O)CC2` [Colchicine]: in the assay on MCF7-ADR [1] (ratio of IC50 resistant to normal cells), the MCF7-ADR/MCF7 is recorded as 6,600.

Consider `COc1cc2c(c(OC)c1OC)-c1ccc(SC)c(=O)cc1C1=Nc3cc(C(C)(C)C)cc(C(C)(C)C)c3OC1C2` (stereo not shown) [Compound IIa], for which the 50% inhibitory concentration (IC50) (as a rule, the concentration at which inhibition is half-maximal) with MCF-7 was 17 nM.

With `COc1cc2c(c(OC)c1OC)-c1ccc(SC)c(=O)cc1C(=O)CC2` [Compound Ia, Thiocolchicone], the half-inhibitory concentration (IC50) in the assay on MCF-7 was determined as 6.2 nM.

As to `COc1cc2c(c(OC)c1OC)-c1ccc(OC)c(=O)cc1C(=O)CC2` [Compound Ib, Colchicone], the IC50 in the assay on MCF-7 turned out to be 23 nM.

`CC(=O)O[C@H]1C(=O)[C@@]2(C)[C@H]([C@H](OC(=O)c3ccccc3)[C@]3(O)C[C@H](OC(=O)[C@H](O)[C@@H](NC(=O)c4ccccc4)c4ccccc4)C(C)=C1C3(C)C)[C@]1(OC(C)=O)CO[C@@H]1C[C@@H]2O` [Taxol]: the half-inhibitory concentration (IC50) with MCF-7 was found to be 2.3 nM; with MCF7-ADR [2], 2400 nM. The MCF7-ADR/MCF7 in the assay on MCF7-ADR [1] (human, mcf7-adr / mcf7 cells) was 1,043.

The values are drawn from patent US6080739A (priority 1996, dated 2000).
